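Step 1: Grow cells in 96-well plates. Step 2: Expose to compound for 48 hours at 5 concentrations. Step 3: Interpolate endpoints linearly; if unreached, use highest concentration. GI50 = concentration required for 50% inhibition of growth. TGI denotes the concentration required for complete inhibition of growth.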
Legend:
Assay in all cases: growth of human tumour cells (NCI), 48 h
[1] = test system: HL-60(TB) leukemia
[2] = test system: SNB-78 CNS
[3] = test system: HT29 colon
[4] = test system: A549 NSCLC
[5] = test system: DMS 273 small cell lung
[6] = test system: HOP-18 NSCLC
[7] = test system: LOX IMVI melanoma
[8] = test system: OVCAR-4 ovarian
[9] = test system: 786-0 renal
[10] = test system: DMS 114 small cell lung
[11] = test system: MDA-MB-435
[12] = test system: MDA-N
[13] = test system: MCF7 breast

SMILES	TGI [1] [µM]	TGI [2] [µM]	TGI [3] [µM]	TGI [4] [µM]	TGI [5] [µM]	TGI [6] [µM]	TGI [7] [µM]	TGI [8] [µM]	TGI [9] [µM]	TGI [10] [µM]	GI50 [11] [µM]	TGI [11] [µM]	TGI [12] [µM]	TGI [13] [µM]	GI50 [3] [µM]	GI50 [4] [µM]	GI50 [13] [µM]	GI50 [7] [µM]	GI50 [8] [µM]	GI50 [12] [µM]
CN(C)[C@@H]1C(=O)C(C(=O)NCNCCCC(=O)O)=C(O)[C@@]2(O)C(=O)C3=C(O)c4c(O)cccc4[C@@](C)(O)[C@H]3C[C@@H]12	> 100	> 100	> 100	> 100	> 100	> 100	> 100	> 100	> 100	> 100										
Cc1cc(=O)[nH]c(NN2C(Cl)C(=O)C2c2cccc([N+](=O)[O-])c2)n1 (centres undefined)	36.8	> 100	49.9	> 100	31.2	78	26.9	57		55.4										
N=C(N)c1ccc(-c2ccc(-c3ccc(Cl)cn3)s2)cc1											1.65	3.02								
CCN(CC)Cc1ccc2cccnc2c1O	75		12.8	32.9			> 100	> 100				> 100	49.7	> 100						
O=C1c2ccccc2C(=O)c2c(NCCNC(=O)C3CCCN3)ccc(NCCNC(=O)C3CCCN3)c21 (centres undefined)	> 100		> 100	> 100			1.58	> 100	2.09			> 100	> 100	> 100						
CN(C)c1ccc2nc3c(C(=O)O)cc(=O)c(O)c-3oc2c1	72.3		> 100	> 100			> 100	> 100	82.7			54.9	55.5	56.5						
COc1ccc(-n2c3c(c4cc(O)ccc42)C(=O)c2ccccc2C3=O)cc1	> 100		18.6	> 100			58	> 100	11.5			> 100	> 100	> 100						
O=C(CC1(O)C(=O)Nc2ccc(Br)cc21)c1ccc(C(=O)NCC2CCC3(CC2)OOC2(CCCCC2)OO3)cc1 (centres undefined)			23	> 100			29	72.3						26.5	4.96	4.3	3.05	1.95	6.93	
CN(C)CCNC(=O)c1cccc2nc3c4ccccc4c4ccccc4c3nc12	4.09	37.6	3.01	12.2	> 100	20.1	3.13	3.24				3.42	3.06	3.47						
Cc1ccc(C)c(/C(=N\N=C(N)N)C2CC2)c1			> 100	> 100			> 100	> 100	> 100			63.9	59.8	> 100						
C[n+]1cccc(/C=C/c2ccc3cccc(O)c3n2)c1	82.3		> 100	> 100			> 100	> 100	> 100			> 100	> 100	> 100						
C[C@H]1CCC/C=C/[C@@H]2C[C@H](O)C[C@H]2[C@H](O)[C@@H](S(=O)CCN)CC(=O)O1 (some centres undefined)			0.0378	> 100			0.101				0.0513	> 92.8	5.5		< 0.0158	0.0402	0.0316	0.031	< 0.0273	0.0505
COc1cnc2c(c1)C(=O)c1c-2n(CCCN2CCNCC2)c(=O)c2cc(Cl)ccc12			2.21					2.73			1.25	2.59			0.66				1.17	
Oc1cc(O)cc(/C=C/c2ccc(O)c(O)c2)c1	> 28.4	76.5	57	53.4	38.9	> 100	> 41.7	> 100		22.1				> 56.1						
COc1cc2ccc1-c1cc(ccc1O)CC1c3cc4c(cc3CCN1C)Oc1c(OC)cc3c(c1O4)C(C2)N(C)CC3 (centres undefined)	4.53	5.23	3.27	3.41	3.27		3.75	3.72	3.15	3.48										
CCOC(=O)c1c2c(c(O)c3ccccc3c(O)n(-c3ccc(C)cc3)c1C)C(=O)C=CC2=O	51.4		41.1	> 100			38.8	29.9	33.5			35.7		55.7						
CC[C@H](Nc1nc(N)nc(N)c1Cl)c1nc2cccc(NCc3ccc(C(=O)NO)cc3)c2c(=O)n1-c1ccccc1			5.27	5.73			3.17				1.7	3.4		7.2	2.01	2.33	2.25	1.73		
COc1ccc(CNc2nc(NCc3ccc(OC)cc3)nc(NC(C)C)n2)cc1	17.7		> 100	33.7			30.9	> 100	32.9			11.2	10.3	5.6						
Cc1c2ccnc(-c3ccccc3)c2cc2c1[nH]c1ccccc12	5.35	30.4	8.14	10.3	4.06	8.67	17.6	32.7		4.82				8.59						
COc1cc2c(cc1OC)C(Cl)C(c1ccc(Cl)cc1)=C2Cl (centres undefined)	41	58.5	28.6		41.6	31.7	25.5			28.6										
c1ccc2c[n+](CCCCCCCCCC[n+]3ccc4ccccc4c3)ccc2c1	> 10		> 10	> 10			> 10	> 10	> 10			> 10	> 10	> 10						

Reference: PubChem BioAssay (NCI)
